# Data from US5294603A, “Pharmaceutical compositions containing didemnins” (The Board of Trustees of The University of Illinois, priority 1992, dated 1994).
# Like-named read-outs stand apart in the source and are kept apart here. Numbered stars: 1 amine (or outer) side, 2 acyl side, 3 side chain; on linkers, the order of the positions; unused ones are H or OH. Bridge positions count the residues as written; N and C are the ends. Square brackets hold non-standard residues; d marks the D form. Peptide text beside a SMILES is read from it. * marks the point of attachment. X1 = CC[C@H](C)[C@@H](N[*:1])[C@@H](O)CC(=O)O[C@H](C(=O)[C@H](C)C(=O)[*:2])C(C)C; X9 = CCC(C)C(N[*:1])C(O)CC(=O)OC(C(=O)C(C)C(=O)[*:2])C(C)C; NMeY = CN[CH](Cc1ccc(O)cc1)C(=O)O; NMeCha = CN[C@@H](CC1CCCCC1)C(=O)O; Stearoyl = CCCCCCCCCCCCCCCCCC(=O)*; X8 = CC(C(=O)*)N1C(=O)c2ccccc2C1=O; dNMeL = CN[C@H](CC(C)C)C(=O)O; pGlu = O=C1CC[C@@H](C(=O)O)N1; Lauroyl = CCCCCCCCCCCC(=O)*; NMeL = CN[CH](CC(C)C)C(=O)O; X5 = O=C(Cc1ccccc1)C(=O)*; Octanoyl = CCCCCCCC(=O)*; Pyruvoyl = CC(=O)C(=O)*; Hexanoyl = CCCCCC(=O)*; Pentanoyl = CCCCC(=O)*; Lac = C[C@H](O)C(=O)O; Sar = CNCC(=O)O
# Key:
# Visna virus (VIV) = assay type: cell-based; set-up: key to % Protection / VIV Protection: I, indeterminate
# [1] = system: L1210 murine leukemia cells; settings: Table 9
# L1210 [2] = settings: for cytotoxicity (result in words): Table 1 footnote and text
# L1210 [3] = experiment: L1210 cytotoxicity, inhibition at fixed doses (Table 10); assay type: cell-based, murine
# [4] = system: Nb2 cells, rat T-cell node lymphoma; experiment: Competitive binding with [3H]didemnin B to Nb2 cells; settings: 3 h at 37° C.
# Method: The immunosuppressive assay was performed by measuring competitive binding of tested compounds with [^3 H]didemnin B to Nb2 cells, rat T-cell node lymphoma. See, Russell, D. H., et al., J. Immunology, 1987, 138, 276-284.
# ^a Competing didemnins incubated with approximately 25 ng of [^3
# [5] = dose 25 ng/mL, tested 4/18/1991
# [6] = dose 250 ng/mL, tested 4/18/1991
# [7] = dose 25 ng/mL, tested 4/22/1990
# [8] = dose 250 ng/mL, tested 4/22/1990
compound,measurement,setting,value
"CC[C@H](C)[C@H]1NC(=O)[C@@H](NC(=O)[C@@H](CC(C)C)N(C)C(=O)[C@@H]2CCCN2C(=O)[C@H](C)OC(=O)[C@H](CCC(N)=O)NC(=O)[C@@H]2CCC(=O)N2)[C@@H](C)OC(=O)[C@H](Cc2ccc(OC)cc2)N(C)C(=O)[C@@H]2CCCN2C(=O)[C@H](CC(C)C)NC(=O)[C@@H](C)C(=O)[C@H](C(C)C)OC(=O)C[C@@H]1O [Didemnin M (12), Didemnin M] ([pGlu]Q[Lac]P[dNMeL]T[X1]LP[NMeY](Me); ester 6-C)",VIV Protection,Visna virus (VIV),-73
same,Cytotoxicity L1210 IC50,[1],0.4 ng/mL
"CCCCCC(=O)N(C)[C@H](CC(C)C)C(=O)N[C@@H]1C(=O)N[C@H]([C@@H](C)CC)[C@@H](O)CC(=O)O[C@@H](C(C)C)C(=O)[C@H](C)C(=O)N[C@@H](CC(C)C)C(=O)N2CCC[C@H]2C(=O)N(C)[C@@H](Cc2ccc(OC)cc2)C(=O)O[C@@H]1C [N^a -Hexanoyl-, N-hexanoyl didemnin A] (Hexanoyl-[dNMeL]T[X1]LP[NMeY](Me); ester 2-C)",cytotoxicity (result in words),L1210 [2],retained the cytotoxicity of didemnin B
same,Cytotoxicity percent L1210 inhibition,L1210 [2]; dose 5 ng/mL,73%
same,Cytotoxicity percent L1210 inhibition,L1210 [2]; dose 12.5 ng/mL,89%
same,Cytotoxicity percent L1210 inhibition,L1210 [2]; dose 25 ng/mL,92%
"CCCCCCCC(=O)N(C)[C@H](CC(C)C)C(=O)N[C@@H]1C(=O)N[C@H]([C@@H](C)CC)[C@@H](O)CC(=O)O[C@@H](C(C)C)C(=O)[C@H](C)C(=O)N[C@@H](CC(C)C)C(=O)N2CCC[C@H]2C(=O)N(C)[C@@H](Cc2ccc(OC)cc2)C(=O)O[C@@H]1C [N^a -Octanoyl-, N-octanoyl didemnin A] (Octanoyl-[dNMeL]T[X1]LP[NMeY](Me); ester 2-C)",cytotoxicity (result in words),L1210 [2],retained the cytotoxicity of didemnin B
same,Cytotoxicity percent L1210 inhibition,L1210 [2]; dose 5 ng/mL,89%
same,Cytotoxicity percent L1210 inhibition,L1210 [2]; dose 12.5 ng/mL,93%
same,Cytotoxicity percent L1210 inhibition,L1210 [2]; dose 25 ng/mL,94%
"CCCCC(=O)N(C)[C@H](CC(C)C)C(=O)N[C@@H]1C(=O)N[C@H]([C@@H](C)CC)[C@@H](O)CC(=O)O[C@@H](C(C)C)C(=O)[C@H](C)C(=O)N[C@@H](CC(C)C)C(=O)N2CCC[C@H]2C(=O)N(C)[C@@H](Cc2ccc(OC)cc2)C(=O)O[C@@H]1C [N^a -Pentanoyl-, N-pentanoyl didemnin A] (Pentanoyl-[dNMeL]T[X1]LP[NMeY](Me); ester 2-C)",cytotoxicity (result in words),L1210 [2],retained the cytotoxicity of didemnin B
same,Cytotoxicity percent L1210 inhibition,L1210 [2]; dose 5 ng/mL,56%
same,Cytotoxicity percent L1210 inhibition,L1210 [2]; dose 12.5 ng/mL,81%
same,Cytotoxicity percent L1210 inhibition,L1210 [2]; dose 25 ng/mL,91%
"CC[C@H](C)[C@H]1NC(=O)[C@@H](NC(=O)[C@@H](CC(C)C)N(C)C(=O)[C@@H]2CCCN2C(=O)C(=O)Cc2ccccc2)[C@@H](C)OC(=O)[C@H](Cc2ccc(OC)cc2)N(C)C(=O)[C@@H]2CCCN2C(=O)[C@H](CC(C)C)NC(=O)[C@@H](C)C(=O)[C@H](C(C)C)OC(=O)C[C@@H]1O [Phepyruv-Pro-DA, PhePyruv-Pro Didemnin A] (X5-P[dNMeL]T[X1]LP[NMeY](Me); ester 3-C)",% Protection,Visna virus (VIV),I
same,IC50,L1210 cells,3.5 ng/mL
same,cytotoxicity compared with DDB,L1210 cells,only partially active
"CCC(C)C1NC(=O)C(NC(=O)C(CC(C)C)N(C)C(=O)C2CCCN2C(=O)C(C)N2C(=O)c3ccccc3C2=O)C(C)OC(=O)C(Cc2ccc(OC)cc2)N(C)C(=O)C2CCCN2C(=O)C(CC(C)C)NC(=O)C(C)C(=O)C(C(C)C)OC(=O)CC1O (centres unmarked) [Phthalimidedidemnin B (82), Phthalimide didemnin B] (X8-P[NMeL]T[X9]LP[NMeY](Me); ester 3-C; configuration not given here)",Inhibition (%),L1210 [3]; [5],98%
same,Inhibition (%),L1210 [3]; [6],99%
"CC[C@H](C)[C@H]1NC(=O)[C@@H](NC(=O)[C@@H](CC(C)C)N(C)C(=O)CN(C)C(=O)C(C)=O)[C@@H](C)OC(=O)[C@H](Cc2ccc(OC)cc2)N(C)C(=O)[C@@H]2CCCN2C(=O)[C@H](CC(C)C)NC(=O)[C@@H](C)C(=O)[C@H](C(C)C)OC(=O)C[C@@H]1O [Pyruv-Sar-DA, Pyruv-Sar Didemnin A] (Pyruvoyl-[Sar][dNMeL]T[X1]LP[NMeY](Me); ester 3-C)",% Protection,Visna virus (VIV),I
same,IC50,L1210 cells,1 ng/mL
same,cytotoxicity,L1210 cells,completely inactive
"CC[C@H](C)[C@H]1NC(=O)[C@@H](NC(=O)[C@@H](CC(C)C)N(C)C(=O)[C@@H]2CCCN2C(C)=O)[C@@H](C)OC(=O)[C@H](Cc2ccc(OC)cc2)N(C)C(=O)[C@@H]2CCCN2C(=O)[C@H](CC(C)C)NC(=O)[C@@H](C)C(=O)[C@H](C(C)C)OC(=O)C[C@@H]1O [[Acetyl^9]Didemnin B (103), [Acetyl^9]didemnin B] (Ac-P[dNMeL]T[X1]LP[NMeY](Me); ester 3-C)",VIV Protection,Visna virus (VIV),-123
same,Inhibition of [3H]didemnin B binding (%),[4]; 0.001 μg/mL,3%
same,Inhibition of [3H]didemnin B binding (%),[4]; 0.01 μg/mL,2%
same,Inhibition of [3H]didemnin B binding (%),[4]; 0.1 μg/mL,67%
same,Inhibition of [3H]didemnin B binding (%),[4]; 1 μg/mL,85%
same,Cytotoxicity L1210 IC50,[1],0.2 ng/mL
"CC[C@H](C)[C@H]1NC(=O)[C@@H](NC(=O)[C@@H](CC(C)C)NC)[C@@H](C)OC(=O)[C@H](CC2CCCCC2)N(C)C(=O)[C@@H]2CCCN2C(=O)[C@H](CC(C)C)NC(=O)[C@@H](C)C(=O)[C@H](C(C)C)OC(=O)C[C@@H]1O [[H6 -N-MePhe^5] didemnin A (117), [Hexahydro-N-MePhe^5]didemnin A] (H-[dNMeL]T[X1]LP[NMeCha]; ester 2-C)",Inhibition (%),L1210 [3]; [5],25%
same,Inhibition (%),L1210 [3]; [7],75%
same,Inhibition (%),L1210 [3]; [6],94%
same,Inhibition (%),L1210 [3]; [8],98%
"CC[C@H](C)[C@H]1NC(=O)[C@@H](NC(=O)[C@@H](CC(C)C)N(C)C(=O)[C@@H]2CCCN2C(=O)[C@H](C)O)[C@@H](C)OC(=O)[C@H](CC2CCCCC2)N(C)C(=O)[C@@H]2CCCN2C(=O)[C@H](CC(C)C)NC(=O)[C@@H](C)C(=O)[C@H](C(C)C)OC(=O)C[C@@H]1O [[H6 -N-MePhe^5] didemnin B (118), [Hexahydro-N-MePhe^5]didemnin B]",Inhibition (%),L1210 [3]; [5],99%
same,Inhibition (%),L1210 [3]; [7],99%
same,Inhibition (%),L1210 [3]; [6],99%
same,Inhibition (%),L1210 [3]; [8],99%
"CC[C@H](C)[C@H]1NC(=O)[C@@H](NC(=O)[C@@H](CC(C)C)NC)[C@@H](C)OC(=O)[C@H](CC2CCC(OC)CC2)N(C)C(=O)[C@@H]2CCCN2C(=O)[C@H](CC(C)C)NC(=O)[C@@H](C)C(=O)[C@H](C(C)C)OC(=O)C[C@@H]1O (some centres unmarked) [[H6 Me2 Tyr^5]didemnin A (115), [HexahydroMe2 Tyr^5]didemnin A]",Inhibition (%),L1210 [3]; [7],17%
same,Inhibition (%),L1210 [3]; [8],94%
"CC[C@H](C)[C@H]1NC(=O)[C@@H](NC(=O)[C@@H](CC(C)C)N(C)C(=O)[C@@H]2CCCN2C(=O)[C@H](C)O)[C@@H](C)OC(=O)[C@H](CC2CCC(OC)CC2)N(C)C(=O)[C@@H]2CCCN2C(=O)[C@H](CC(C)C)NC(=O)[C@@H](C)C(=O)[C@H](C(C)C)OC(=O)C[C@@H]1O (some centres unmarked) [[H6 Me2 Tyr^5]didemnin B (116), [HexahydroMe2 Tyr^5]didemnin B]",Inhibition (%),L1210 [3]; [5],99%
same,Inhibition (%),L1210 [3]; [7],98%
same,Inhibition (%),L1210 [3]; [6],99%
same,Inhibition (%),L1210 [3]; [8],99%
"CCCCCCCCCCCC(=O)N(C)[C@H](CC(C)C)C(=O)N[C@@H]1C(=O)N[C@H]([C@@H](C)CC)[C@@H](O)CC(=O)O[C@@H](C(C)C)C(=O)[C@H](C)C(=O)N[C@@H](CC(C)C)C(=O)N2CCC[C@H]2C(=O)N(C)[C@@H](Cc2ccc(OC)cc2)C(=O)O[C@@H]1C [lauroyl, N-lauroyl didemnin A] (Lauroyl-[dNMeL]T[X1]LP[NMeY](Me); ester 2-C)",cytotoxicity (result in words),L1210 [2],inactive
"CC[C@H](C)[C@H]1NC(=O)[C@@H](NC(=O)[C@@H](CC(C)C)N(C)C(=O)[C@@H]2CCCN2C(=O)[C@H](C)OC(=O)[C@@H]2CCC(=O)N2)[C@@H](C)OC(=O)[C@H](Cc2ccc(OC)cc2)N(C)C(=O)[C@@H]2CCCN2C(=O)[C@H](CC(C)C)NC(=O)[C@@H](C)C(=O)[C@H](C(C)C)OC(=O)C[C@@H]1O [pGlu-didemnin B (113), O-Pyroglutamyldidemnin B] ([pGlu][Lac]P[dNMeL]T[X1]LP[NMeY](Me); ester 5-C)",VIV Protection,Visna virus (VIV),-65
same,Cytotoxicity L1210 IC50,[1],0.4 ng/mL
"CCCCCCCCCCCCCCCCCC(=O)N(C)[C@H](CC(C)C)C(=O)N[C@@H]1C(=O)N[C@H]([C@@H](C)CC)[C@@H](O)CC(=O)O[C@@H](C(C)C)C(=O)[C@H](C)C(=O)N[C@@H](CC(C)C)C(=O)N2CCC[C@H]2C(=O)N(C)[C@@H](Cc2ccc(OC)cc2)C(=O)O[C@@H]1C [stearoyl, N-stearoyl didemnin A] (Stearoyl-[dNMeL]T[X1]LP[NMeY](Me); ester 2-C)",cytotoxicity (result in words),L1210 [2],inactive
Didemnin D [Didemnin D (19)],VIV Protection,Visna virus (VIV),-53
same,Cytotoxicity L1210 IC50,[1],0.5 ng/mL
Didemnin E [Didemnin E (20)],VIV Protection,Visna virus (VIV),-73
same,Cytotoxicity L1210 IC50,[1],0.5 ng/mL
Didemnin X [Didemnin X (10)],VIV Protection,Visna virus (VIV),-25
same,Cytotoxicity L1210 IC50,[1],2 ng/mL
Didemnin Y [Didemnin Y (11)],VIV Protection,Visna virus (VIV),-33
same,Cytotoxicity L1210 IC50,[1],2 ng/mL
Isodidemnin A1 [Isodidemnin A1 (1a)],VIV Protection,Visna virus (VIV),< 0
same,Cytotoxicity L1210 IC50,[1],10 ng/mL
N-(CH3 ONsu)didemnin A [N-(CH3 ONsu)-didemnin A (111)],VIV Protection,Visna virus (VIV),-43
N-palmitoyl didemnin A,cytotoxicity (result in words),L1210 [2],inactive
Nordidemnin A [Nordidemnin A (21)],VIV Protection,"Visna virus (VIV); Table 9, 0.1 μg/mL",< 0%
same,Cytotoxicity L1210 IC50,[1],30 ng/mL
[AnhydroIst^1 ]Phthalimide didemnin B,Inhibition (%),L1210 [3]; [5],81%
same,Inhibition (%),L1210 [3]; [6],99%
